Values quoted from earlier work in patent US11542295B2, “Use of 20-hydroxyecdysone and the derivatives thereof in the treatment of myopathies” (BIOPHYTIS, priority 2017, dated 2023).

Tests used:
[1] = tested on: young athletes; settings: young athletes (Simakin et al., 1988); cited from earlier work
[2] = tested on: muscles of rats; settings: rats in vivo; cited from earlier work
[3] = tested on: C2C12 mouse myotubes; settings: C2C12 mouse myotubes in vitro; cited from earlier work

CC(C)(O)CC[C@@H](O)[C@](C)(O)[C@H]1CC[C@@]2(O)C3=CC(=O)[C@@H]4C[C@@H](O)[C@@H](O)C[C@]4(C)[C@H]3CC[C@]12C [20-hydroxyecdysone]
muscle mass [1]: increases
effects on protein syntheses in muscles [2]: stimulant effects
effects on protein syntheses [3]: stimulant effects
